Assay results reported in patent US20120164670A1, “METHODS AND KITS FOR MEASURING ENZYME ACTIVITY” (President and Fellows of Harvard College, priority 2009, published 2012).
Like-named read-outs stand apart in the source and are kept apart here. One block for each compound: values may come before it.

Assays:
Type in all cases: biochemical
SIRT1 [1] = biological target: T1, SIRT1 (Homo sapiens, UniProt Q96EB6); assay: PNC1-OPT fluorescent Nicotinamide Assay of SIRT1 deacetylation
T1 sequence (Q96EB6 1-747): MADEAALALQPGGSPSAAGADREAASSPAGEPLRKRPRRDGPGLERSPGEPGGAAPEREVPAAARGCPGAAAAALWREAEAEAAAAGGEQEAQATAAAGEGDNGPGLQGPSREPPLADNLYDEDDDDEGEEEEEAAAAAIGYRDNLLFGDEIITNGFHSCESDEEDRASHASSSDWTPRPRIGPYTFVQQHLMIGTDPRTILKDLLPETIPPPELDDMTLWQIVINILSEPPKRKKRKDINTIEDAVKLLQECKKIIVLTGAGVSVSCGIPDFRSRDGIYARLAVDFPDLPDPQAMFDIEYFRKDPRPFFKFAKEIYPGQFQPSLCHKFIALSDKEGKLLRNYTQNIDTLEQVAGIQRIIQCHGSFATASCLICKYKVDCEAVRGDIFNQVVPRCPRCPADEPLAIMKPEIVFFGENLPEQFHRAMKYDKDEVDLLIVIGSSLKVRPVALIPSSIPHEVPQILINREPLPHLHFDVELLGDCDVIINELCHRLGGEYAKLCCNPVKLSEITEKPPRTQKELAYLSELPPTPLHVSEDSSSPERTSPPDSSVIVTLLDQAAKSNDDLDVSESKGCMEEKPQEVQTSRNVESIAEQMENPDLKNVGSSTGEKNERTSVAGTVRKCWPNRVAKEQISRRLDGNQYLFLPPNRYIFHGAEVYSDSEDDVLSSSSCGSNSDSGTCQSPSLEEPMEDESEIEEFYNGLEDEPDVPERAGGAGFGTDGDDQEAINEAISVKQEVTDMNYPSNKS
Procedure: A SIRT1 enzymatic deacetylation reaction was carried out in the presence of an acetylated substrate and β-NAD. […] Subsequently, PNC1 was added to the mixture to convert all of the nicotinamide generated during the reaction into ammonia. Additionally, PNC1 may be added directly to the SIRT1 reaction (and the reactions may proceed simultaneously). […] In brief, the products of the PNC1 reaction were reacted with o-phthaladehyde in the presence of DTT. The reaction was allowed to proceed for 1 hour, and subsequently the amount of fluorescent adducts obtained were measured fluorometrically with excitation at ˜413 nm and emission at ˜476 nm. […] A blank reaction was also performed in the absence of NAD.
Prepare a master-mix for the total number of reactions you wish to perform. For each individual reaction, mix the following in the order presented (the total volume for each reaction is 100 uL):
Incubate at 37° C. for the appropriate amount of time (typically 1 hour) Reaction 2: Nicotinamide→Ammonia→Fluorescent adducts Note: When adding the OPT Developer it is advisable to work in a dark or dimly lit setting. Dim the lights prior to adding the developer to each reaction. a) Add 100 uL of the OPT Developer Mix to each reaction. b) Mix each sample by vortexing briefly for 5 s at the highest setting. c) Immediately cover all of the samples with Aluminum foil, and incubate the reactions on an orbital shaker for 1 hour at room temperature. Once covered, ambient lighting may be restored. 3) If necessary samples may be transferred to a 96-well plate for reading (do this under dim light). Read the fluorescence on a fluorometer with filters set to excitation (˜420 nm+/−20, and emission ˜450 nm (+/−20). A 0.1 s or 1 s read is generally recommended.
OPT Developer Reagent: A solution of 10 mM OPT and 10 mM DTT in 100% EtOH. Store at −20° C. in the dark until use. Cover with Aluminum foil in order to minimize exposure to light.

[2] = biological target: T2, full-length human SIRT1 enzyme (Homo sapiens, UniProt Q96EB6); assay: Sirtuin assay kit (PNC1-OPT) with hSIRT1 enzyme
T2 construct: 1.1 ug/uL full-length human SIRT1 enzyme
T2 sequence (Q96EB6 1-747): T1 sequence (Q96EB6 1-747)
Procedure: Kit contents are generally stored at −20° C. Modifications or variations in volumes or amounts of components described below are compatible with kits and assays described herein. • 1) Assay Buffer: 2 tubes with 1 mL each of 10× Assay Buffer. Dilute to 1× with ddH20 prior to use. • 2) Non-tagged Peptide Substrate: 1 tube with 140 uL of 5 mM H3K9ac substrate (TARK(ac)STG)) (SEQ ID NO:23). This is a sample substrate only; any substrate may be used in this assay. • 3) β-NAD: a) 1 tube with 450 uL of 10 mM B-NAD, and b) 1 tube with 50 uL of 100 mM B-NAD. In some instances, it is preferable to keep β-NAD in concentrated aliquot form, and dilute it prior to use. • 4) hSIRT1 Enzyme: 1 tube with 400 uL of 1.1 ug/uL full-length human SIRT1 enzyme. • 5) yPNC1 Enzyme: 1 tube with 200 uL of 2 ug/uL yeast PNC1 enzyme • 6) Developing Reagent: 2 vials with 10 mL each 1× Developer (10 mM OPT/10 mM DTT in 100% EtOH). Minimize exposure to light as outlined in the procedure. […]
In some instances, when adding the OPT Developer it is advisable to work in a dark or dimly lit setting. […] Once covered, ambient lighting may be restored. • d) Read the samples. Samples may be transferred to a 96-well plate for reading (do this under dim light). Read the fluorescence on a fluorometer with filters set to excitation ˜420 nm, and emission ˜460 nm. […]

SIRT1 [3] = biological target: T1, SIRT1; assay: PNC1-GDH (non-fluorometric) Nicotinamide Assay of SIRT1 deacetylation; conditions: FIG. 4; Nicotinamide Assay depicted in FIG. 1 (PNC1-GDH); read-out: NAD Km value for SIRT1
Procedure: A SIRT1 enzymatic deacetylation reaction was carried out in the presence of an acetylated substrate and β-NAD. […] Subsequently, a-Ketoglutarate and NADPH were added to the reaction mix. The absorbance was read at 340 nm using an appropriate spectrophotometer (Ro). PNC1 and GDH were then added in excess to induce the coupled conversion of NADPH to NADP (PNC1 first converts NAM to NH3, and subsequently GDH uses the ammonia to oxidize NADPH to NADP). A second reading at 340 nm was then obtained (R1). The difference in absorbance readings, R1-Ro is proportional to the amount of NAM produced in the initial deacetylation reaction, thereby allowing for the measurement of activity. A blank reaction was carried out in the absence of NAD (or absence of Enzyme), as above, and subtracted from each sample in order to normalize the data.
Ex. Substrate Concentration (BIOMOL)=20 uM; NAD Concentration=1 mM
1) Mix the following (final volume 100 uL): • a) 10 uL 10×BIOMOL Buffer (250 mM Tris-Cl [pH=8], 1.37 M NaCl, 27 mM KCl, 10 mM MgCl2) • b) 0.4 uL *H4K16-Lys BIOMOL peptide (from a 5 mM stock for a final concentration of 20 uM) • c) 1 uL of 100 mM B-NAD (for a final concentration of 1 mM) • d) 2 uL SIRT1 enzyme (at 1.2 ug/ul, total ˜2.5 ug) • e) […] ddH20 2) Mix the reaction by pipetting. […] Place the reaction on ice until ready to proceed with reaction 2 (Centrifuge Briefly). […]

effect on SIRT1 deacetylase activity on the Fleur de Lys substrate (SIRT1 [1]; FIG. 10C, 100 uM, 75 uM β-NAD and 25 uM Fleur de Lys substrate): activation of SIRT1 deacetylase activity
Compound: Oc1ccc(C=Cc2cc(O)cc(O)c2)cc1 [Resveratrol, reference compound]

effect of concentration on SIRT1 activity (dose titration) (SIRT1 [1]; FIG. 21B, H3K9-L peptide substrate): inversely correlates with SIRT1 activity
Compound: DBC1: endogenous SIRT1 protein inhibitor

Compound: Adenosine diphosphate ribose [ADPr, reference compound]
mechanism of SIRT1 inhibition (SIRT1 [1]; FIG. 19/20, Vmax and Vmax/K vs [ADPr] for β-NAD and H3K9 peptide): competitive inhibitor of β-NAD

Km (SIRT1 [1]; FIG. 8D, Nicotinamide Assay depicted in FIG. 6 (PNC1-OPT), Fleur de Lys peptide as substrate, read-out: NAD Km value for SIRT1): ~200 µM | Km ([2]; kit protocol, Experiment 2 mastermix, read-out: Km of β-NAD (final concentration = Km)): 150 µM | Km ([2]; stated in kit protocol (blank control note), read-out: Km for NAD): ~160 µM | Km (SIRT1 [3]): 80 to 100 µM
Compound: NC(=O)C1=CN([C@@H]2O[C@H](COP(=O)(O)OP(=O)(O)OC[C@H]3O[C@@H](n4cnc5c(N)ncnc54)[C@H](O)[C@@H]3O)[C@@H](O)[C@H]2O)C=CC1 [NAD, β-nicotinamide adenine dinucleotide]
